Reference: ChEMBL document CHEMBL3797131, “Discovery and optimization of 1,7-disubstituted-2,2-dimethyl-2,3-dihydroquinazolin-4(1H)-ones as potent and selective PKCθ inhibitors” (Bioorg Med Chem, 2016)

What was measured:
Assay type in all cases: ADME, organism-based
[1] = Plasma concentration in Balb/c mouse at 10 mg/kg to 100 mg/kg, po after 4 hrs
[2] = Clearance in Balb/c mouse at 1 mg/kg, po and 0.1 mg/kg, iv; details: in vivo
[3] = AUC in Balb/c mouse at 1 mg/kg, po; details: in vivo
[4] = Oral bioavailability in Balb/c mouse at 1 mg/kg; details: in vivo

Row | Structure (SMILES) | concentration at 4 h [1] | clearance [2] | AUC [3] | bioavailability [4]
1 | C[C@H](c1ccccc1)N1c2cc(-n3c(=O)[nH]c4ncccc43)ccc2C(=O)NC1(C)C | 2000 nM | 27.3 mL/min/kg | 172 ng·h/mL | 28%
2 | CC1(C)NC(=O)c2ccc(-n3c(=O)[nH]c4ncccc43)cc2N1Cc1ccccc1 |  | 143 mL/min/kg | 16 ng·h/mL | 12%
3 | C[C@@H](c1ccccc1)N1c2cc(-n3c(=O)[nH]c4ncccc43)ccc2C(=O)NC1(C)C |  | 107 mL/min/kg | 11 ng·h/mL | 7%
